Assay results: US10717777B2, “Synthetic lung surfactant with enhanced stability and effectiveness” (The Lundquist Institute for Biomedical Innovation at …, priority 2015, dated 2020)

test: Surface activity by captive bubble surfactometry (quasi-static cycling); assay type: physicochemical; conditions: FIG. 2; B-YL, B-LYL, B-AYL at 3% in 5:3:2 (wt:wt:wt) DPPC:POPC:POPG; S-MB, S-MB-DATK, MB-DATK added for comparison
Protocol: In this example, surface activity of the various peptides disclosed in the present disclosure were measured in mixtures of peptides and lipids using captive bubble surfactometry.
This example used peptide concentrations of 2-4% and a lipid mixture consisting of 5:3:2 (wt:wt:wt) DPPC:POPC:POPG. Lipids only were used a negative control and the clinical surfactant Infasurf™ as a positive control.
Low surface tension equals high surface activity.
Minimum tension values during the first 10 cycles of quasi-static cycling on the captive bubble surfactometer are compared with those of lipids only.
FIG. 2 compares 3% of B-YL (SEQ ID NO: 27), B-LYL (SEQ ID NO: 28) and B-AYL (SEQ ID NO: 29) in 5:3:2 (wt:wt:wt) DPPC:POPC:POPG with lipids only (negative control) and the clinical surfactant Infasurf™ (positive control). For comparison the minimum surface tension values of Super Mini-B (S-MB), Super Mini-B-DATK (S-MB-DATK) and Mini-B-DATK (MB-DATK) have been added to the figure.

Sequence	Surface activity (minimum surface tension) as compared to the negative control (lipids only)
CWLCRALIKRIQAMIDATKRMLPQLVCRLVLRCS [Mini-B-DATK, Mini-B analog with DATK turn, added for comparison]	excellent surface activity
FPIPLPYCWLCRALIKRIQAMIDATKRMLPQLVCRLVLRCS [Super Mini-B-DATK, Super Mini-B analog with DATK turn, added for comparison]	excellent surface activity
FPIPLPYCWLCRALIKRIQAMIPKGGRMLPQLVCRLVLRCS [Super Mini-B]	excellent surface activity
FPIPLPYLWLYRALIKRIQALIPKGGRLLPQLVYRLVLRLS [B-LYL]	excellent surface activity
FPIPLPYYWLYRALIKRIQALIPKGGRLLPQLVYRLVLRYS [B-YL]	excellent surface activity
